# Measurements as given in patent US20120065203A1, “Methods of Reducing Serum Glucose and Triglyceride Levels and for Inhibiting Angiogenesis Using Substituted Indolealkanoic Acids” (The Institute for Pharmaceutical Discovery, LLC, priority 1998, published 2012).
# Like-named read-outs stand apart in the source and are kept apart here.
# Experiments:
# diabetic (db/db) mice = conditions: for mean percent change in glucose (lowering): after four weeks
# Protocol: The mice are obese, extremely hyperglycemic and also hyperinsulinemic.
# Male db/db mice (8 weeks old) were obtained from Jackson Laboratories and were allowed to acclimate for 1 week before the experiment commenced. A sample of blood was collected from the tail after which plasma glucose was isolated by centrifigation and the glucose concentration was measured in the plasma enzymatically on the COBAS automated clinical_analyzer equipped with a glucose kit that utilized hexokinas to quantitate the amount of glucose in a sample (Roche Diagnostic Systems, kit #47382). Mice with the lowest plasma glucose values were removed from the study and the remaining mice were randomized according to their individual plasma glucose values into 3 treatment groups (n=12 per group), control untreated db/db mice, 100 mg/kg/d compound treated db/db mice and 300_mg/kg/d compound treated db/db mice.
# Treatment with the compound was carried out for 4 weeks during which time blood glucose levels were measured weekly from the tail using the One Touch II blood glucose meter (Lifescan, Inc). The blood glucose values of mice in the compound treated groups was compared to the blood glucose values of mice from the control untreated group by an analysis of variance followed by Dunett's Comparison Test (one-tailed).
# [1] = test system: streptozotocin-induced diabetic rats; conditions: STZ diabetic rats, 10 mg/kg daily by gavage, listed as test compound
# Protocol: Diabetes is induced in animals as follows: male Sprague-Dawley rats (150 g), supplied by Harlan Teklad (Madison, Wis.), are allowed to acclimate for 1 week and water is supplied ad libitum. […] STZ, 40 mg/kg, is prepared in 0.03 M citrate buffer, pH 4.5 and administered intraperitoneally after a 24-hr fast. Control animals receive citrate buffer.
# Two hours after STZ injection, food is returned. Two days following STZ injection, blood glucose is measured and animals with <300 mg/dL are eliminated. Animals with blood glucose levels ≧300 mg/dL are randomized into diabetic control and treated groups.
# In all, three groups of animals are monitored and compared. The groups comprise a (nondiabetic) control group (n=5); an untreated diabetic (control) group (n=7); and treated diabetic group (n=7). […] The nondiabetic and diabetic control groups are administered vehicle.
# After the final dose (Day 8), all groups of animals are fasted for 4 hours and anesthetized with CO2, and blood is collected by cardiac puncture into EDTA tubes. The plasma is separated from the red blood cells by centrifugation. Plasma triglyceride levels are quantitated on an automated COBAS chemistry system utilizing the Roche reagent for Triglycerides (Cat #44119). This assay is a standard spectrophotometric enzyme assay that uses a Trinder reaction to measure the final product (Trinder, P., Ann Clin Biochem 6: […], 1969). […]
# [2] = test system: STZ treated diabetic minipigs; assay: Wound healing in STZ treated diabetic minipigs; format: in vivo, minipig; conditions: STZ diabetic minipigs with wounds, compared with untreated controls
# Description: These animals are compared with control STZ diabetic minipigs also having wounds but that are not treated with the compound.
# [3] = molecular target: human aldose reductase (hALR2) (Homo sapiens, UniProt P15121); assay: Inhibition of human aldose reductase (hALR2); format: biochemical
# Protocol: Representative compounds of the invention were tested for their potency, selectivity and efficacy as inhibitors of human aldose reductase.
# Description for rat aortic ring: Rats (less than 6 weeks old, approx 150 grams) are individually sacrificed via carbon dioxide asphyxiation. The abdomen and thorax are opened along the midline with scissors using known sterile techniques. The animals are placed recumbent on their right side, to allow displacement of the viscera. The abdominal and thoracic sections of the aorta are carefully separated from the dorsum by dissection along the longitudinal axis of the aorta. The isolated aorta is placed in a petri dish containing sterile, ice cold Hanks' balanced salt solution (Gibco BRL-Life Technologies, Rockville, Md.) for further micro-dissection under a dissecting microscope. The lumenal content of the aorta is dislodged by injection with Hanks, balanced salt solution via a syringe. Adherent adipose, loose connective tissue and segments of intercostal arteries are trimmed from the exterior of the aorta using sterile microsurgical instruments. The aorta is transferred to a clean petri dish containing fresh Hanks' balanced salt solution and the entire aorta is sectioned into 1 to 2 mm thick rings. The two end rings and any other rings which appear damaged are discarded. The aorta is maintained submerged in Hanks' balanced salt solution on ice while plating onto a 48-well plate.
# Using a 48-well tissue culture plate, which is chilled on ice, in a tissue culture hood a 120 microliters of thawed Matrigel® (Becton Dickinson Labware, Bedford, Mass.) is plated onto each well using a sterile pipet tip. The Matrigel® is solidified by placing the culture plate for 30 minutes in a 37° C. humidified tissue culture incubator in the presence of 5% CO2. A single aortic ring is placed on edge, with one of its two cut surfaces resting on the Matrigel®, at the center of each well using a sterile curved forcep. The layout of the culture plate is such that the rings from multiple animals are placed in a single column on the plate. In this fashion, the experimental results represent observations based on six animals (n=6). […]
Compound,"Blood glucose (diabetic (db/db) mice; 100 mg/kg/d in diet, Week 0, mean ± SD) [mg/dL]","Blood glucose (diabetic (db/db) mice; 100 mg/kg/d in diet, Week 2, mean ± SD) [mg/dL]","Blood glucose (diabetic (db/db) mice; 100 mg/kg/d in diet, Week 4, mean ± SD) [mg/dL]",mean percent change in glucose (lowering) (diabetic (db/db) mice; 100 mg/kg/d) [%],"Blood glucose (diabetic (db/db) mice; 300 mg/kg/d in diet, Week 0, mean ± SD) [mg/dL]","Blood glucose (diabetic (db/db) mice; 300 mg/kg/d in diet, Week 2, mean ± SD) [mg/dL]",mean percent change in glucose (lowering) (diabetic (db/db) mice; 300 mg/kg/d) [%],Triglyceride lowering compared to diabetic [1] [%],degree of wound healing [2],"Linear Microvascular Growth (rat aortic ring; Intervention (Days 4-6), compound only on days 4-6, mean ± SD)","Linear Microvascular Growth (rat aortic ring; Prevention (Days 1-6), 50 micromolar, mean ± SD)","Linear Microvascular Growth (rat aortic ring; Removal: 50 micromolar days 1-3, compound removed days 4-6, mean ± SD)",IC50 [3] [nM]
"Cc1c(Cc2nc3c(F)c(F)cc(F)c3s2)c2ccccc2n1CC(=O)O [Example 1, 2-methyl-3-(4,5,7-trifluorobenzothiazol-2-yl)methyl-indole-N-acetic acid]",323 ± 79,284 ± 75,303 ± 79,12,313 ± 52,240 ± 85,40,68,significant increase in the degree of wound healing,"1.97 ± 0.66, n = 5 mm","1.46 ± 0.48, n = 6 mm","2.31 ± 0.71, n = 5 mm",
"O=C(O)Cn1cc(Cc2nc3ccc(F)cc3s2)c2ccccc21 [Example 24, 3-[6-Fluorbenzothiazole-2-yl]methyl-indole-N-acetic Acid]",,,,,,,,,,,,,1040
